Assay results reported in patent publication US5834244A, “Factor VIIa inhibitors from Kunitz domain proteins” (Genentech, Inc., priority 1995, dated 1998).
Like-named read-outs stand apart in the source and are kept apart here. Positions of bridges follow the written chain, without caps; N, C: chain ends. No end group written: not given here.

Legend:
[1] = test system: Male New Zealand white rabbits; experiment: Rabbit deep medial injury model (carotid artery patency, thrombus weight); format: in vivo; conditions: for Clot (mps) / Duration (Min.) of patency: mean ± sem
Method: (§1) Male New Zealand white rabbits (~4 kg) were anesthetized to surgical anesthesia plane with an IM injection of Ketamine / Xylaxine. The rabbits were placed supine on a restraining board, warmed to 37° C., and the neck and inner thigh area shaved. Teflon catheters were replaced in a marginal ear vein and femoral artery for drug delivery and sample collection respectively. Prior to treatment, blood samples were collected for coagulation tests (APTT and PT). Bleeding time was assessed from a cut made in the cuticle portion of a hind limb nail. Incisions were made in the neck region and the entire left common carotid artery and its branches were surgically isolated. An ultrasonic flow probe (Transonics®) was placed on the common carotid approximately 5 cm caudal to the common--internal bifurcation. After blood flow reached a stable baseline, drugs (saline or test compounds) were delivered via the marginal ear vein. A deflated embolectomy catheter (Fogarty®, 3F) was then introduced into the lumen of the common via an incision in the lingual branch. Blood flow through the artery was stopped briefly while the catheter was introduced and loosely secured with 2-0 silk tie at the incision site. After the catheter was in place and secure, blood flow was restored. The deflated balloon was advanced to within 2 mm of the flow probe and inflated with saline until resistance of the vessel wall was felt. The catheter was pulled back with a steady motion to the first branch and then deflated. This procedure was repeated a total of six times for each experimental animal, after which the catheter was removed. […] Over 40 minutes, blood samples were taken for APTT and PT measurements, cuticle bleeding times were assessed and blood flow through the carotid monitored. Duration of patency was defined as the total amount of time (maximum=40 minutes) that any measurable blood flow is detected in the artery. Patency rate refers to the percentage of animals tested who had carotid artery blood flow ≥5 minutes. At the end of the experiment the rabbit was euthanized and the carotid artery removed and opened. If any thrombus was present, it was removed, blotted and the weight recorded.

[2] = test system: Male New Zealand white rabbits; experiment: Cuticle bleeding time assay; format: in vivo, rabbit; conditions: for bleeding compared to the saline control (in words): after 10 minutes
Method: as §1
Table 3 below describes the results of the cuticle bleeding time assay at 10 minutes after dosing.

[3] = target: T1, TF-FVIIa (Homo sapiens, UniProt P08709); experiment: Enzyme inhibition assay, apparent equilibrium dissociation constant (Ki*) with TF-FVIIa; format: biochemical
T1 construct: is generated by proteolysis of a single peptide bond from its zymogen Factor VII (FVII); purchased Haematologic Technologies Inc. (FVIIa); TF1-243 made in house in E. coli; host or cells: E. coli (TF1-243)
T1 sequence (P08709 213-466 limits assumed): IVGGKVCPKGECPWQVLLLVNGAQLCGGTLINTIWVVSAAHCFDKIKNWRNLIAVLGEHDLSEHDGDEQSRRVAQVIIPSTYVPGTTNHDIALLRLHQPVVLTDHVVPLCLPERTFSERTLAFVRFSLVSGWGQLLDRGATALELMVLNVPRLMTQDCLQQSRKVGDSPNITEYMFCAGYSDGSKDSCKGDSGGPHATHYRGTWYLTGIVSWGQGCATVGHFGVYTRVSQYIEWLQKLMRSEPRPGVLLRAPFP
T1 sequence (P08709 61-212 limits assumed): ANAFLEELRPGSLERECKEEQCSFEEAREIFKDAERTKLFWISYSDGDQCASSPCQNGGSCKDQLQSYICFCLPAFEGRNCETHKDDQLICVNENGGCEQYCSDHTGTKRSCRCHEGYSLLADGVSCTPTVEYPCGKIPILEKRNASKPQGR
T1 sequence (P13726 33-275 partner limits assumed): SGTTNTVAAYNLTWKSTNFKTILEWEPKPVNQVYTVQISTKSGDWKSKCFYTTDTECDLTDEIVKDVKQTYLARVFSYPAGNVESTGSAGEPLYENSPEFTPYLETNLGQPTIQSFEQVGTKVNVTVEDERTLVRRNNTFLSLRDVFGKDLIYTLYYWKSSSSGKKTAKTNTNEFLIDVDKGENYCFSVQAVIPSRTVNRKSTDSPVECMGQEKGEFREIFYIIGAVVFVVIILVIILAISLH
Method: Aliquots (25 μL) from each well of a microtiter plate containing the serially diluted inhibitors were transferred into new microtiter plates, each containing a different protease (100 μL) in the appropriate buffer. The proteases tested (protease concentration, buffer, substrate) were FVIIa (10 nM, Buffer A, 0.7 mM S2366), FXIa (1.0 nM, Buffer B containing 1 mg/ml BSA, 0.7 mM S2366), plasma kallikrein (3.5 nM, Buffer B, 0.5 mM S2302), and plasmin (15 nM, Buffer B, 1 mM S2251).

[4] = test system: rabbit plasma; experiment: PT clotting time in rabbit plasma; format: biochemical; conditions: 40 μM
Method: (§2) Samples of rabbit plasma were assayed using an MLA 800 coagulometer and Dade reagents. Actin FS® was the activator in the APTT assay. Rabbit Thromboplastin with Ca++ was used for the PT assays; the rabbit thromboplastin was diluted two-fold. All mutant inhibitors tested prolonged clotting by at least one fold. […] A greater than 10 fold prolongation of the clotting time at 40μM was observed.

[5] = test system: normal human plasma; experiment: Activated partial thromboplastin time (APTT) assay, initiated by ellagic acid; format: biochemical
Method: For the activated partial thromboplastin time (APTT) assays, the activation time was set at 120 sec and acquisition time at 300 to 600 sec depending on the expected outcome of the assay. Citrated normal human plasma and inhibitor were incubated together. The sample (plasma and inhibitor) and activator (Instrumentation Laboratories Ellagic acid/Phospholipid mix Test Reagent) were automatically pipetted and incubated together for 2 min at 37° C., then CaCl2 was added and clotting time determined by means of optical assessment. The total incubation time of inhibitor with plasma was ca. 3 min before addition of activator, and 5 min before addition of CaCl2.

[6] = test system: rabbit plasma; experiment: APTT clotting time in rabbit plasma; format: biochemical; conditions: 40 μM
Method: as §2

[7] = Heparin 1: 25 u/kg bolus then 0.5 u/kg/min infusion
[8] = Heparin 2: 25 u/kg bolus then 1 u/kg/min infusion

Compound: Heparin
- Patency (%) [1, 7]: 67%
- Clot (mps) [1, 7]: 13.6 ± 4.7 mps
- Duration (Min.) of patency [1, 7]: 23.3 ± 6.7 min
- Patency (%) [1, 8]: 100%
- Clot (mps) [1, 8]: 19.1 ± 8.5 mps
- Duration (Min.) of patency [1, 8]: 35.2 ± 2.2 min
- patency and clot size compared to the saline control (in words) ([1]; rabbit, in vivo): significantly prolonged patency and reduced clot size
- Cuticle bleeding time, fold increase over pre dose ([2]; rabbit, in vivo): 1.7 ± 0.4 fold

Compound: CC[C@H](C)[C@@H]1NC(=O)[C@H](CC(C)C)NC(=O)[C@H](C)NC(=O)[C@H](CCCNC(=N)N)NC(=O)[C@@H]2CSSC[C@@H]3NC(=O)CNC(=O)CNC(=O)[C@H](Cc4ccc(O)cc4)NC(=O)[C@H](Cc4ccccc4)NC(=O)[C@H](Cc4ccccc4)NC(=O)[C@@H]4CCCN4C(=O)[C@H](C)NC(=O)[C@H](CSSC[C@H](NC(=O)[C@H](Cc4ccc(O)cc4)NC(=O)[C@H](CCC(=O)O)NC(=O)[C@H](CCC(=O)O)NC(=O)[C@H]([C@@H](C)O)NC(=O)[C@H](CC(=O)O)NC(=O)[C@H](Cc4ccccc4)NC(=O)[C@H](CC(N)=O)NC(=O)[C@H](CC(N)=O)NC(=O)[C@H](CCCNC(=N)N)NC(=O)[C@H](CC(N)=O)NC(=O)CNC(=O)[C@H](Cc4ccc(O)cc4)NC3=O)C(=O)N[C@@H](C)C(=O)N[C@@H](C)C(=O)N[C@@H](C(C)C)C(=O)N[C@H](C(=O)NCC(=O)N[C@@H](CO)C(=O)N[C@@H](C)C(=O)O)CSSC[C@H](NC(=O)[C@@H](NC(=O)[C@H](CCC(=O)O)NC(=O)[C@H](CCCNC(=N)N)NC(=O)[C@@H](N)C(C)C)C(C)C)C(=O)N[C@@H](CO)C(=O)N[C@@H](CCC(=O)O)C(=O)N[C@@H](CCC(N)=O)C(=O)N[C@@H](C)C(=O)N[C@@H](CCC(=O)O)C(=O)N3CCC[C@H]3C(=O)NCC(=O)N3CCC[C@H]3C(=O)N2)NC(=O)[C@H](CCCCN)NC(=O)CNC(=O)[C@H](CCC(=O)O)NC(=O)[C@H]([C@@H](C)O)NC(=O)[C@H](C(C)C)NC(=O)[C@H](CC(=O)O)NC(=O)[C@H](Cc2ccccc2)NC(=O)[C@H](Cc2ccc(O)cc2)NC(=O)[C@H](Cc2c[nH]c3ccccc23)NC(=O)[C@H](CCCNC(=N)N)NC(=O)[C@H](CC(C)C)NC1=O [TF7I-C]
- bleeding compared to the saline control (in words) [2]: did not induce prolonged bleeding

Compound: APPI: Alzheimer's amyloid β-protein precursor inhibitor, wild type Kunitz domain (58 residues, SEQ ID NO: 34) (VREVCSEQAETGPCRAMISRWYFDVTEGKCAPFFYGGCGGNRNNFDTEEYCMAVCGSA)
- Patency (%) ([1]; 2 mg/kg IV bolus, animals with carotid blood flow ≥5 minutes): 40%
- Duration (Min.) of patency ([1]; 2 mg/kg IV bolus, maximum 40 minutes): 13.4 ± 8.5 min
- Clot (mps) ([1]; 2 mg/kg IV bolus, thrombus weight): 49.5 ± 18.2 mps
- inhibition of TF-FVIIa (in words) [3]: moderate inhibitor
- Ki ([3]; FVIIa 10 nM and TF1-243 50 nM, representative of nine (TF7I-C) and seven (APPI) determinations, read-out: Ki* with TF-FVIIa (FIG. 5, representative determination)): 300 nM
- Ki ([3]; FVIIa 10 nM, TF1-243, S2366, pH 7.5, read-out: apparent equilibrium dissociation constant Ki* with TF-FVIIa): 301 ± 44 nM
- PT, fold increase over baseline [4]: 1.4 fold
- APTT clotting time, fold prolongation ([5]; 40 μM inhibitor, uninhibited 31 s): 3.6 fold
- APTT clotting time, fold prolongation ([5]; ca. 7 μM inhibitor): ca. 3 fold
- Cuticle bleeding time, fold increase over pre dose ([2]; rabbit, in vivo, iv, 2 mg/kg): 2.2 ± 0.6 fold
- APTT, fold increase over baseline [6]: 4.9 fold

Compound: VREVCSEQAEPGPCRAMMKRWYFDVTEGKCAPFIYGGCYGNRNNFDTEEYCAAVCGSA (disulfide 5-55, 14-38, 30-51) [IV-49C]
- Cuticle bleeding time, fold increase over pre dose ([2]; 10 minutes after dosing, 2 mg/kg IV bolus): 1.0 ± 1.0 fold
- bleeding compared to the saline control (in words) [2]: did not induce prolonged bleeding
